The record followed here is PubChem BioAssay (NCI).

Test systems include 786-0 renal; HCC-2998 colon; HCT-116 colon; HCT-15 colon; HS 578T breast; IGROV1 ovarian; OVCAR-3 ovarian; PC-3 prostate; SF-539 CNS; SK-OV-3 ovarian; U251 CNS; UACC-257 melanoma.
Common to all, as to assay: NCI anticancer screen, dose series, 48 h

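Five compound concentrations were applied to cells in 96-well plates for 48 hours; endpoints were derived by simple linear interpolation of the resulting dose-response curve. Here, GI50 denotes the concentration required for 50% inhibition of growth. At the TGI there is no net growth.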

Take `COc1ccc(OC)c2c1C=CC(Br)=CC2`: the TGI in the assay with 786-0 renal was 0.544 µM; with HCC-2998 colon, 0.449 µM; in the assay with HCT-116 colon, 0.672 µM; with HCT-15 colon, 0.485 µM; with HS 578T breast, greater than 1 µM; in the assay on IGROV1 ovarian, greater than 1 µM. Moreover, the TGI with OVCAR-3 ovarian was greater than 1 µM; in the assay with PC-3 prostate, greater than 1 µM; in the assay with SF-539 CNS it was greater than 1 µM; in the assay on SK-OV-3 ovarian, 0.358 µM; with U251 CNS, greater than 1 µM; in the assay on UACC-257 melanoma it was 0.942 µM.
For the compound `COC(C)(C)/C=C/c1[nH]c2ccccc2c1CC(=O)NCCc1cn(C(c2ccccc2)(c2ccccc2)c2ccccc2)cn1`, the TGI was 17.1 µM in the assay with 786-0 renal; 2.95 µM in the assay with HCC-2998 colon; 14.8 µM in the assay on HCT-116 colon; greater than 100 µM in the assay on HCT-15 colon; 60.2 µM in the assay with HS 578T breast; greater than 100 µM in the assay with IGROV1 ovarian. Also, the TGI with OVCAR-3 ovarian was greater than 29.2 µM; in the assay on PC-3 prostate, 10.6 µM; in the assay on SF-539 CNS, 14.1 µM; in the assay on SK-OV-3 ovarian, greater than 34.9 µM; with U251 CNS, 16.5 µM; with UACC-257 melanoma, 24.9 µM.
With `Cc1ccc2nc(C(C)C)c(=O)[nH]c2c1`, the TGI in the assay with 786-0 renal, in the assay on HCC-2998 colon, with HCT-116 colon, in the assay with HCT-15 colon, in the assay with HS 578T breast and in the assay with IGROV1 ovarian was greater than 100 µM throughout. Besides, the TGI with OVCAR-3 ovarian is 32.8 µM; in the assay with PC-3 prostate it was 34.1 µM; in the assay with SF-539 CNS, greater than 100 µM; with SK-OV-3 ovarian, greater than 100 µM; with U251 CNS, greater than 100 µM; in the assay with UACC-257 melanoma, greater than 100 µM.
Consider `CN(C)c1c(C2OC(CO)C(O)C2O)c(=O)c1=O` (stereo unspecified), for which the TGI with 786-0 renal, in the assay with HCC-2998 colon, with HCT-116 colon, in the assay on HCT-15 colon, with HS 578T breast and with IGROV1 ovarian was greater than 100 µM in each case. Moreover, the TGI in the assay with OVCAR-3 ovarian, in the assay on PC-3 prostate, in the assay with SF-539 CNS, in the assay with SK-OV-3 ovarian, in the assay on U251 CNS and in the assay with UACC-257 melanoma was greater than 100 µM in each case.
Take `COc1ccccc1C(O)[C@@H]1C[C@@H]2[C@H]3CC[C@@](C)([C@@H]2O1)C3(C)C` (stereo partly specified): the TGI in the assay on 786-0 renal turned out to be 32.7 µM; in the assay with HCC-2998 colon it was 41.8 µM; in the assay on HCT-116 colon it was 43.1 µM; in the assay with HCT-15 colon it was 57.7 µM; in the assay with HS 578T breast, 35.3 µM; with IGROV1 ovarian it was 31.2 µM. For the same compound, the TGI with OVCAR-3 ovarian stood at 31.3 µM; in the assay with PC-3 prostate, 45.2 µM; in the assay with SF-539 CNS, 24.2 µM; in the assay on SK-OV-3 ovarian, 87.1 µM; in the assay on U251 CNS it was 32.1 µM; in the assay with UACC-257 melanoma, 39 µM.
As to `COc1cccc(C2c3cc4c(cc3OC(NNS(=O)(=O)c3ccc(C)cc3)C2C)OCO4)c1OC` (stereo unspecified), the TGI with 786-0 renal was 68.3 µM; with HCC-2998 colon, greater than 100 µM; in the assay on HCT-116 colon, 4.56 µM; in the assay on HCT-15 colon, 9.82 µM; with HS 578T breast it was 21.1 µM; in the assay on IGROV1 ovarian it was 15.3 µM. Further, the TGI was 4.55 µM in the assay on OVCAR-3 ovarian; 92.4 µM with PC-3 prostate; 11.9 µM with SF-539 CNS; 7.83 µM in the assay with SK-OV-3 ovarian; 16.9 µM in the assay with U251 CNS; greater than 100 µM in the assay on UACC-257 melanoma.
As for `CCCc1cc(COC)c(C#N)c(=O)[nH]1`, the TGI in the assay on 786-0 renal, with HCC-2998 colon, in the assay on HCT-116 colon, in the assay with HCT-15 colon, in the assay with HS 578T breast and in the assay with IGROV1 ovarian was greater than 100 µM in each case. For the same compound, the TGI in the assay on OVCAR-3 ovarian, with PC-3 prostate, in the assay on SF-539 CNS, in the assay on SK-OV-3 ovarian, in the assay with U251 CNS and in the assay on UACC-257 melanoma was greater than 100 µM throughout.
Regarding `CCC(C)[C@@H](Nc1c(O)c2c(c(O)c1Cl)C(=O)C=CC2=O)C(=O)OC` (stereo partly specified), the TGI is greater than 10 µM with 786-0 renal; greater than 10 µM in the assay on HCC-2998 colon; 6.94 µM with HCT-116 colon; greater than 10 µM with HCT-15 colon; greater than 10 µM in the assay with HS 578T breast; greater than 10 µM in the assay with IGROV1 ovarian. The TGI in the assay on OVCAR-3 ovarian was 9.1 µM; in the assay with PC-3 prostate, greater than 10 µM; with SF-539 CNS it was greater than 10 µM; in the assay on SK-OV-3 ovarian, greater than 10 µM; in the assay with U251 CNS, 8.83 µM; in the assay on UACC-257 melanoma, 6.59 µM.
With `O=[N+]([O-])c1ccc(-n2nc3ccc4c(no[n+]4[O-])c3n2)cc1`, the TGI in the assay on 786-0 renal, in the assay on HCC-2998 colon, in the assay with HCT-116 colon, with HCT-15 colon, in the assay with HS 578T breast and in the assay with IGROV1 ovarian was greater than 100 µM in each case. Also, the TGI in the assay on OVCAR-3 ovarian, in the assay with PC-3 prostate, in the assay on SF-539 CNS, in the assay with SK-OV-3 ovarian, in the assay with U251 CNS and in the assay with UACC-257 melanoma was greater than 100 µM in each case.
Consider `CN(C)N1C(=O)S/C(=C\c2ccc([N+](=O)[O-])cc2)C1=O`, for which the TGI in the assay with 786-0 renal, in the assay on HCC-2998 colon, with HCT-116 colon, in the assay on HCT-15 colon, in the assay with HS 578T breast and in the assay on IGROV1 ovarian was greater than 100 µM throughout. The TGI in the assay on OVCAR-3 ovarian, with PC-3 prostate, with SF-539 CNS, with SK-OV-3 ovarian, in the assay with U251 CNS and in the assay with UACC-257 melanoma was greater than 100 µM each time.
Take `Cc1ccc2c(=O)cc(-c3ccc4ccccc4c3)[nH]c2n1`: the TGI was greater than 100 µM in the assay with 786-0 renal; 68.6 µM with HCC-2998 colon; 87.9 µM with HCT-116 colon; greater than 100 µM in the assay with HCT-15 colon; 20 µM in the assay on HS 578T breast; 82.7 µM in the assay with IGROV1 ovarian. In addition, the TGI with OVCAR-3 ovarian was greater than 100 µM; with PC-3 prostate, 9.61 µM; with SF-539 CNS it was 54.1 µM; with SK-OV-3 ovarian, greater than 100 µM; in the assay on U251 CNS, greater than 100 µM; with UACC-257 melanoma it was greater than 100 µM. Moreover, the GI50 in the assay with HCT-116 colon is 4 µM; in the assay on OVCAR-3 ovarian, 3.59 µM; in the assay with PC-3 prostate, 2.62 µM; in the assay with U251 CNS, 4.57 µM.
